Measured values: patent US10123537B2, “Amide compound or salt thereof, agricultural and horticultural insecticide and microbicide comprising the compound, and method for using the insecticide and microbicide” (NIHON NOHYAKU CO., LTD., priority 2013, dated 2018)

Legend:
[1] = test system: wheat powdery mildew fungus Erysiphe graminis; settings: 200 ppm, foliar application to wheat plants, 10 mL per pot, 7 days after inoculation
Meloidogyne incognita = assay: Nematicidal test on Meloidogyne incognita; format: in vivo; settings: 500 ppm, 1 mL soil drench, potted melon seedlings, 8 days after inoculation
Protocol: Nematicidal Test on Meloidogyne incognita
Agrochemical formulations containing different amide compounds represented by the general formula (I) of the present invention or salts thereof as an active ingredient were separately diluted to a concentration of 500 ppm. The diluted agrochemical formulations (1 mL) were drenched into the soil around the foot of potted melon seedlings. At one day after the agrochemical treatment, an aqueous suspension of Meloidogyne incognita (about 500 worms/mL) was drenched into the soil for inoculation both in a treatment plot and in a non-treatment plot. The inoculated pots were kept in a greenhouse at 25° C. At 8 days after the inoculation, the root of each seedling was washed with water, the number of root nodules was counted, and the nematicidal effect was evaluated according to the following criteria.
A: the percentage of the number of root nodules relative to the non-treatment plot is 0%.
B: the percentage of the number of root nodules relative to the non-treatment plot is 1 to 10%.
C: the percentage of the number of root nodules relative to the non-treatment plot is 11 to 20%.
D: the percentage of the number of root nodules relative to the non-treatment plot is 21 to 50%.

Tetranychus urticae = assay: Acaricidal test on Tetranychus urticae; format: in vivo; settings: 500 ppm, kidney bean leaf disks dipped about 30 seconds, female adults, two days later, 25° C.
From the text: Acaricidal Test on Tetranychus urticae

Laodelphax striatella = assay: Insecticidal test on Laodelphax striatella; format: in vivo; settings: Laodelphax striatellus, 192 h, rice seedlings dipped 30 seconds, 3rd-instar larvae, 8 days after inoculation, read-out: insecticidal effect (corrected mortality rate) activity level
From the text: Insecticidal Test on Laodelphax striatella
The amide compounds represented by the general formula (I) of the present invention or salts thereof were separately dispersed in water and diluted to 500 ppm, and rice plant seedlings (variety: Nihonbare) were dipped in the agrochemical dispersions for 30 seconds. After air-dried, each seedling was put into a separate glass test tube and inoculated with ten 3rd-instar larvae of Laodelphax striatella, and then the glass test tubes were capped with cotton plugs. At 8 days after the inoculation, the numbers of surviving larvae and dead larvae were counted, the corrected mortality rate was calculated according to the formula shown below, and the insecticidal effect was evaluated according to the criteria of Test Example 1. Corrected mortality rate (%)=100×(Survival rate in a non-treatment plot−Survival rate in a treatment plot)/Survival rate in a non-treatment plot

Plutella xylostella = assay: Insecticidal test on Plutella xylostella; format: in vivo; settings: 144 h, Chinese cabbage seedlings with laid eggs dipped about 30 seconds, 25° C., 6 days after dip treatment, read-out: insecticidal effect (corrected mortality rate, hatched larvae) activity level
From the text: Insecticidal Test on Plutella xylostella
Adults of Plutella xylostella were released onto Chinese cabbage seedlings and allowed to lay eggs thereon. At 2 days after the release of the adults, the Chinese cabbage seedlings with laid eggs were dipped for about 30 seconds in agrochemical formulations diluted to 500 ppm, each of which contained a different amide compound represented by the general formula (I) of the present invention as an active ingredient. After air-dried, the seedlings were kept in a thermostatic chamber at 25° C. At 6 days after the dip treatment, the number of hatched larvae per plot was counted, the mortality rate was calculated according to the formula shown below, and the insecticidal effect was evaluated according to the criteria of Test Example 1. This test was conducted in triplicate using 10 adults of Plutella xylostella per plot. Corrected mortality rate (%)=100×(Number of hatched larvae in a non-treatment plot−Number of hatched larvae in a treatment plot)/Number of hatched larvae in a non-treatment plot

SMILES: CCS(=O)(=O)c1cc(C(F)(F)F)ccc1C(=O)N(C)c1ccc(C(OC)(C(F)(F)F)C(F)(F)F)cc1 [Compound 3-6]
- control effect (control rate, lesion area) activity level [1]: D or higher
- nematicidal effect (number of root nodules relative to non-treatment plot) activity level (Meloidogyne incognita): D or higher
- acaricidal effect (corrected mortality rate) activity level (Tetranychus urticae): D or higher

SMILES: CC[S+]([O-])c1cc(C(F)(F)F)ccc1C(=O)N(C)c1ccc(C(F)(F)F)cn1 (stereo not drawn) [Compound 1-2, 2-(ethylsulfinyl)-N-methyl-4-(trifluoromethyl)-N-(5-(trifluoromethyl)pyridin-2-yl)benzamide]
- nematicidal effect (number of root nodules relative to non-treatment plot) activity level (Meloidogyne incognita): D or higher
- mortality at 500 ppm (Laodelphax striatella): 100%
- mortality at 500 ppm (Plutella xylostella): 100%

SMILES: CCS(=O)(=O)c1cc(C(F)(F)F)ccc1C(=O)N(C)c1ccc(C(F)(F)F)cc1 [Compound 3-3]
- control effect (control rate, lesion area) activity level [1]: D or higher
- nematicidal effect (number of root nodules relative to non-treatment plot) activity level (Meloidogyne incognita): D or higher
- acaricidal effect (corrected mortality rate) activity level (Tetranychus urticae): D or higher

SMILES: CC[S+]([O-])c1cc(C(F)(F)F)ccc1C(=O)N(c1ccc(C(F)(F)F)cn1)C1CC1 (stereo not drawn) [Compound 1-8]
- nematicidal effect (number of root nodules relative to non-treatment plot) activity level (Meloidogyne incognita): D or higher
- acaricidal effect (corrected mortality rate) activity level (Tetranychus urticae): D or higher

SMILES: CCSc1cc(C(F)(F)F)ccc1C(=O)N(C)c1ccc(C(C(F)(F)F)C(F)(F)F)cc1 [Compound 3-10]
- nematicidal effect (number of root nodules relative to non-treatment plot) activity level (Meloidogyne incognita): D or higher
- acaricidal effect (corrected mortality rate) activity level (Tetranychus urticae): D or higher

SMILES: CCS(=O)(=O)c1cc(C(F)(F)F)ccc1C(=O)N(C)c1ccc(C(F)(F)F)cn1 [Compound 1-3, 2-(ethylsulfonyl)-N-methyl-4-(trifluoromethyl)-N-(5-(trifluoromethyl)pyridin-2-yl)benzamide]
- nematicidal effect (number of root nodules relative to non-treatment plot) activity level (Meloidogyne incognita): D or higher
- mortality at 500 ppm (Laodelphax striatella): 100%
- mortality at 500 ppm (Plutella xylostella): 100%

SMILES: CCSc1cc(C(F)(F)F)ccc1C(=O)N(C)c1ccc(C(F)(F)F)cn1 [Compound 1-1, 2-(ethylthio)-N-methyl-4-(trifluoromethyl)-N-(5-(trifluoromethyl)pyridin-2-yl)benzamide]
- nematicidal effect (number of root nodules relative to non-treatment plot) activity level (Meloidogyne incognita): D or higher
- mortality at 500 ppm (Laodelphax striatella): 100%
- mortality at 500 ppm (Plutella xylostella): 100%
- acaricidal effect (corrected mortality rate) activity level (Tetranychus urticae): D or higher

SMILES: CCSc1cc(C(F)(F)F)ccc1C(=O)N(C)c1ccc(Cl)cc1 [Compound 3-21]
- nematicidal effect (number of root nodules relative to non-treatment plot) activity level (Meloidogyne incognita): D or higher
- acaricidal effect (corrected mortality rate) activity level (Tetranychus urticae): D or higher

SMILES: CCS(=O)(=O)c1cc(C(F)(F)F)ccc1C(=O)N(C)c1ccc(C(C(F)(F)F)C(F)(F)F)cc1 [Compound 3-11]
- nematicidal effect (number of root nodules relative to non-treatment plot) activity level (Meloidogyne incognita): D or higher
- acaricidal effect (corrected mortality rate) activity level (Tetranychus urticae): D or higher

SMILES: CCN(C(=O)c1ccc(C(F)(F)F)cc1S(=O)(=O)CC)c1ccc(C(F)(F)F)cn1 [Compound 1-6]
- control effect (control rate, lesion area) activity level [1]: D or higher
- nematicidal effect (number of root nodules relative to non-treatment plot) activity level (Meloidogyne incognita): D or higher
- acaricidal effect (corrected mortality rate) activity level (Tetranychus urticae): D or higher

SMILES: CC[S+]([O-])c1cc(C(F)(F)F)ccc1C(=O)N(C)c1ccc(C(F)(F)F)cc1 (stereo not drawn) [Compound 3-2]
- nematicidal effect (number of root nodules relative to non-treatment plot) activity level (Meloidogyne incognita): D or higher
- acaricidal effect (corrected mortality rate) activity level (Tetranychus urticae): D or higher

SMILES: CCSc1cc(C(F)(F)F)ccc1C(=O)N(C)c1ccc(C(F)(F)C(F)(F)F)cn1 [Compound 1-25]
- nematicidal effect (number of root nodules relative to non-treatment plot) activity level (Meloidogyne incognita): D or higher
- acaricidal effect (corrected mortality rate) activity level (Tetranychus urticae): D or higher

SMILES: CCSc1cc(C(F)(F)F)ccc1C(=O)N(CC)c1ccc(C(F)(F)F)cn1 [Compound 1-4]
- nematicidal effect (number of root nodules relative to non-treatment plot) activity level (Meloidogyne incognita): D or higher
- acaricidal effect (corrected mortality rate) activity level (Tetranychus urticae): D or higher

SMILES: CCN(C(=O)c1ccc(C(F)(F)F)cc1[S+]([O-])CC)c1ccc(C(F)(F)F)cn1 (stereo not drawn) [Compound 1-5]
- control effect (control rate, lesion area) activity level [1]: D or higher
- nematicidal effect (number of root nodules relative to non-treatment plot) activity level (Meloidogyne incognita): D or higher
- acaricidal effect (corrected mortality rate) activity level (Tetranychus urticae): D or higher
